The term % inhibition denotes how much of the control response was suppressed.

Consider 21 substances from patent US11840686B2, “Modulation of prekallikrein (PKK) expression” (Ionis Pharmaceuticals, Inc., priority 2013, dated 2023).

Strand notation (5' to 3'): a small letter for the sugar, then the base; units joined by * are phosphorothioate-linked, units joined directly phosphodiester-linked; [ ] holds rarer units or linkages, { } end groups; capitals alone tell only the bases. e = 2'-O-(2-methoxyethyl) (MOE); k = constrained ethyl (cEt); [5mC] = 5-methylcytosine; d = 2'-deoxy (DNA)

In this data set the test system is human PKK mRNA. As to the kind of experiment: Antisense inhibition of human PKK mRNA in HepaRG cells, 1,000 nM, MOE/deoxy/cEt oligonucleotides (Example 3). Format: cell-based. A digest of the protocol:
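HepaRG cells at 20,000 per well electroporated with 1,000 nM 16-mer MOE/cEt/deoxy gapmers (phosphorothioate, 5-methylcytosine). After about 24 h, PKK mRNA measured by qRT-PCR with primer probe set RTS3454, normalized to RIBOGREEN total RNA. Reported as percent inhibition versus untreated cells.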

Setting [1] is: Table 30, human PKK mRNA, HepaRG cells, 1,000 nM antisense oligonucleotide.
The mark [2] stands for this setting: HepaRG cells, electroporation with 1,000 nM antisense oligonucleotide, approximately 24 hours, primer probe set RTS3454, relative to untreated control cells, experiment of Table 23.
The mark [3] stands for this setting: HepaRG cells, 1,000 nM antisense oligonucleotide, Table 29.
Where [4] appears, read: Table 19, HepaRG cells, electroporation with 1,000 nM antisense oligonucleotide, approximately 24 hours, PKK mRNA by RT-PCR (RTS3454), relative to untreated control cells.
Where [5] appears, read: Table 21 experiment, HepaRG cells, electroporation with 1,000 nM antisense oligonucleotide, approx. 24 hours, PKK mRNA by RT-PCR (RTS3454), relative to untreated control cells.
Where [6] appears, read: HepaRG cells, electroporation with 1,000 nM antisense oligonucleotide, approx. 24 hours, PKK mRNA by RT-PCR (RTS3454), relative to untreated control cells, Table 26 experiment.

For the substance “548456 (eT*eA*kT*dA*dA*d[5mC]*dA*dG*dT*dA*dT*d[5mC]*dA*k[5mC]*k[5mC]*eG; antisense) [compound 548456]”, the “% inhibition” value under setting [1] is given as 52%.

Consider “547989 (antisense e[5mC]*eT*kG*dA*d[5mC]*dA*dG*d[5mC]*dG*dA*dA*dT*d[5mC]*kA*kT*e[5mC]) [compound 547989]”, for which the “% inhibition” value under setting [2] turned out to be 66%.

“548401 (eG*e[5mC]*k[5mC]*dA*dG*d[5mC]*dT*dA*dT*dG*dG*dG*dA*kA*k[5mC]*eA; antisense) [compound 548401]”: under setting [1], the “% inhibition” value is given as 71%.

Take “548415 (antisense eA*eT*kA*dA*d[5mC]*dT*d[5mC]*dT*dA*dA*d[5mC]*dA*dG*kT*kA*eT) [compound 548415]”: the “% inhibition” value under setting [1] is on record as 0%.

For the substance “548601 (eT*eT*kG*dG*dT*dG*dG*dT*dG*dG*dG*dA*dT*kT*kG*eG; antisense) [compound 548601]”, the “% inhibition” value under setting [3] came to 18%.

Turning to “548114 (antisense eT*eG*kG*dT*dG*dA*d[5mC]*dT*dG*d[5mC]*dA*dT*d[5mC]*kT*kG*eA) [compound 548114]”, the “% inhibition” value under setting [4] is reported as 70%.

“547960 (eT*eG*k[5mC]*dA*dG*dG*dT*dT*dA*dA*dA*dA*dG*kG*k[5mC]*eT; antisense) [compound 547960]”: the “% inhibition” value under setting [2] is 40%.

As to “547755 (eT*eA*kA*dA*dA*dA*dT*dG*dA*dA*d[5mC]*dG*dG*kT*k[5mC]*eT; antisense) [compound 547755]”, under setting [5], the “% inhibition” value worked out at 0%.

For “547882 (e[5mC]*eT*kG*dG*d[5mC]*dA*dG*d[5mC]*dG*dA*dA*dT*dG*kT*kT*eA; antisense) [compound 547882]”, the “% inhibition” value turned out to be 91% (Table 20, HepaRG cells, electroporation with 1,000 nM antisense oligonucleotide, approximately 24 hours, PKK mRNA by RT-PCR (RTS3454), relative to untreated control cells) and 96% (Table 22 experiment, HepaRG cells, electroporation with 1,000 nM antisense oligonucleotide, approx. 24 hours, PKK mRNA by RT-PCR (RTS3454), relative to untreated control cells).

As for “547801 (eT*eA*k[5mC]*dA*dT*dG*dG*dA*dA*dG*d[5mC]*dT*dA*k[5mC]*kA*eT; antisense) [compound 547801]”, the “% inhibition” value under setting [5] is 11%.

“548416 (antisense e[5mC]*eT*kA*dT*dA*dA*d[5mC]*dT*d[5mC]*dT*dA*dA*d[5mC]*kA*kG*eT) [compound 548416]”: the “% inhibition” value under setting [1] was 9%.

Turning to “548539 (antisense e[5mC]*eG*k[5mC]*dG*d[5mC]*dG*dA*dA*dT*dG*d[5mC]*d[5mC]*dT*kG*k[5mC]*e[5mC]) [compound 548539]”, the “% inhibition” value under setting [3] is 41%.

On to “547995 (antisense eG*eT*kG*dT*d[5mC]*d[5mC]*d[5mC]*dA*dT*dA*d[5mC]*dG*d[5mC]*kA*kA*eT) [compound 547995]”, for which the “% inhibition” value under setting [2] turned out to be 64%.

As to “548472 (e[5mC]*e[5mC]*k[5mC]*dA*dA*dT*dA*d[5mC]*dA*dG*dG*dG*d[5mC]*k[5mC]*kA*eG; antisense) [compound 548472]”, where the note is “Table 28, HepaRG cells, 1,000 nM antisense oligonucleotide, human PKK mRNA”, the “% inhibition” value is 0%.

For the substance “548224 (e[5mC]*e[5mC]*kA*dT*dA*dG*dA*d[5mC]*d[5mC]*d[5mC]*dA*dG*dA*kA*kT*e[5mC]; antisense) [compound 548224]”, the “% inhibition” value (HepaRG cells, electroporation with 1,000 nM antisense oligonucleotide, approx. 24 hours, PKK mRNA by RT-PCR (RTS3454), relative to untreated control cells, Table 25 experiment) was determined as 20%.

Turning to “548257 (antisense eA*eG*kT*dG*d[5mC]*dT*d[5mC]*d[5mC]*d[5mC]*d[5mC]*dA*dT*dG*k[5mC]*kA*eT) [compound 548257]”, under setting [6], the “% inhibition” value is reported as 2%.

As to “547826 (eT*eT*k[5mC]*dG*dA*dT*dG*dT*dA*d[5mC]*dT*dT*dT*kT*kG*eG; antisense) [compound 547826]”, the “% inhibition” value under setting [5] was 31%.

“548272 (antisense eG*eG*kT*dG*d[5mC]*d[5mC]*dA*d[5mC]*dT*dT*dG*d[5mC]*dT*kT*kG*eG) [compound 548272]”: the “% inhibition” value under setting [6] came to 54%.

Regarding “548115 (antisense e[5mC]*eA*kT*dG*d[5mC]*dT*dG*dG*dT*dG*dA*d[5mC]*dT*kG*k[5mC]*eA) [compound 548115]”, under setting [4], the “% inhibition” value is on record as 76%.

For “548007 (e[5mC]*eT*k[5mC]*dA*dA*dA*dG*dA*dG*dT*dA*dA*d[5mC]*k[5mC]*kA*eG; antisense) [compound 548007]”, the “% inhibition” value (HepaRG cells, electroporation with 1,000 nM antisense oligonucleotide, approximately 24 hours, primer probe set RTS3454, relative to untreated control cells, experiment of Table 24) was 70%.

On to “547793 (antisense eA*eT*k[5mC]*d[5mC]*dA*d[5mC]*dA*dG*dG*dA*dA*dA*d[5mC]*kT*kG*eT) [compound 547793]”, for which, under setting [5], the “% inhibition” value is 16%.
